Series [1] deals with pBR322 plasmid DNA. Briefly: Plasmid relaxation assay: DNA photocleavage of supercoiled plasmid under UV irradiation. It is filed as biochemical. Particulars: pH 6, 15 μM, 10 min of UV irradiation. On the procedure: General information. ^1H, ^13C and ^19F NMR were collected on a Varian Gemini 300 MHz NMR spectrometer and a Bruker 300 MHz NMR spectrometer. Mass spectrometry data was collected on a Jeol JMS-600H. UV spectra were recorded on a Shimadzu UV-2100. Fluorescence spectra were obtained with SPEX FluoMax spectrofluorimeter using right-angle geometry. pH was adjusted with AB 15 plus pH meter (Accument) after standardization at 25° C. All buffers were prepared and pH-adjusted at room temperature (25° C.). Plasmid DNA Photocleavage. pBR322 plasmid DNA (4,361 b/p; from BioLabs Inc., 1 μg/μL solution in 10 mM Tris-HCl (pH 8.0), and 1 mM EDTA buffer) was diluted to a concentration of 0.01 μg/μL. The solution containing cleavage agent, DNA (30 μM/bp) in 20 mM sodium phosphate buffer was incubated for 1 hour at 30° C. Samples were placed on ice at a distance of 20 cm from 200 W Hg—Xe lamp (Spectra-Physics, Laser & Photonics Oriel Instruments with long pass filter with 324 nm cut-off wavelength). Electrophoretic Analysis. The gel electrophoresis was carried out in 1×TBE buffer at 80 V using Miligel FisherBiotech Horizontal Electrophoresis System. All gels were run on 1% agarose slab gels. Before loading, the DNA samples were mixed with 0.33 volume of tracking dye containing bromophenol blue (0.25%) and glycerol (30%) in water. After staining in ethidium bromide solution (2 μg/ml) for 1 hour, the gel was washed with water and pictures were taken with Polaroid 3000ISO type 667 film. The relative quantities of the supercoiled, nicked, and linear DNA were calculated by integrating the “area” of each spot by the image analyzer software Total/Lab (Nonlinear Dynamics Ltd., UK). The amount of supercoiled DNA was multiplied by factor of 1.4 to account for reduced ethidium bromide intercalation into supercoiled DNA. pH titration by ^1H-NMR. pH* of compound 8 (3 mM) solution in D2O containing 0.05 wt % 3-(trimethylsilyl)propionic-2,2,3,3-d4 acid, sodium salt (TSP-d4) was adjusted with 10 wt % DCI and NaOD in D2O at 25° C. under argon purged condition. Spectrometric determinations of pKa. pH of 10 μM of compound solution in H2O was adjusted with 10, 100 mM HCl (aq) and NaOH (aq) solution under argon purged condition. Excitation wavelength was 330 nm and polymethacrylate fluorimeter cuvettes were used. Absorbance and fluorescence titration with DNA. The concentrations of calf thymus DNA stock solution was determined spectophotometrically using the following molar absorptovity values: 1.32×10^4 M^−1 cm^−1 (per base pair) at 260 nm. All experiments were done in 20 mM sodium phosphate buffer at 25° C. and polymethacrylate fluorimeter cuvettes were used. The same amount of DNA was added to both sample and reference cuvettes during UV/Vis titration. Determination of excited state lifetimes. The concentration of compound solution was 10 μM in 20 mM sodium phosphate buffer. The photoluminescence lifetime measurements were conducted by exciting the samples with the output of a Nd:VO—4 (Spectra-Physics Vanguard, 2 W, 532 nm, 76 MHz, 10 ps) pumped R6G dye laser (Coherent 702-1). The output of the dye laser (600 nm, Rhodamine 6G) was cavity dumped at 1.9 MHz and frequency doubled using a BBO crystal to excite the fluorophore (the excitation wavelength used was 290 nm). Samples were excited with <1 mW power and the emission was collected at right angles onto a Chromex S3 500 is 0.5 m imaging monochromator with a 50 g/mm grating and 0.5 nm resolution. Output of the monochromator is focused into a Hamamatsu C5680 streak camera operating at a 20 ns window for the fluorophore. Intensity analysis was carried out by integrating the spectral profile in time on the streak camera. Lifetime analysis over 6-7 lifetimes of the fluorophore was conducted by binning the photoluminescence intensity collected on the streak camera over a 20 nm spectral window at the centroid value of the emission of the fluorophore. Ethidium bromide displacement. […]

Series [2] is described as follows: UV-absorption titration determination of pKa. It is filed as physicochemical. The following applies: absorption; α-amino group (4, 6), ε-amino group (7). Here is the method:
(§1) General information. ^1H, ^13C and ^19F NMR were collected on a Varian Gemini 300 MHz NMR spectrometer and a Bruker 300 MHz NMR spectrometer. Mass spectrometry data was collected on a Jeol JMS-600H. UV spectra were recorded on a Shimadzu UV-2100. Fluorescence spectra were obtained with SPEX FluoMax spectrofluorimeter using right-angle geometry. pH was adjusted with AB 15 plus pH meter (Accument) after standardization at 25° C. All buffers were prepared and pH-adjusted at room temperature (25° C.). Plasmid DNA Photocleavage. pBR322 plasmid DNA (4,361 b/p; from BioLabs Inc., 1 μg/μL solution in 10 mM Tris-HCl (pH 8.0), and 1 mM EDTA buffer) was diluted to a concentration of 0.01 μg/μL. The solution containing cleavage agent, DNA (30 μM/bp) in 20 mM sodium phosphate buffer was incubated for 1 hour at 30° C. Samples were placed on ice at a distance of 20 cm from 200 W Hg—Xe lamp (Spectra-Physics, Laser & Photonics Oriel Instruments with long pass filter with 324 nm cut-off wavelength). Electrophoretic Analysis. The gel electrophoresis was carried out in 1×TBE buffer at 80 V using Miligel FisherBiotech Horizontal Electrophoresis System. All gels were run on 1% agarose slab gels. Before loading, the DNA samples were mixed with 0.33 volume of tracking dye containing bromophenol blue (0.25%) and glycerol (30%) in water. After staining in ethidium bromide solution (2 μg/ml) for 1 hour, the gel was washed with water and pictures were taken with Polaroid 3000ISO type 667 film. The relative quantities of the supercoiled, nicked, and linear DNA were calculated by integrating the “area” of each spot by the image analyzer software Total/Lab (Nonlinear Dynamics Ltd., UK). The amount of supercoiled DNA was multiplied by factor of 1.4 to account for reduced ethidium bromide intercalation into supercoiled DNA. pH titration by ^1H-NMR. pH* of compound 8 (3 mM) solution in D2O containing 0.05 wt % 3-(trimethylsilyl)propionic-2,2,3,3-d4 acid, sodium salt (TSP-d4) was adjusted with 10 wt % DCI and NaOD in D2O at 25° C. under argon purged condition. Spectrometric determinations of pKa. pH of 10 μM of compound solution in H2O was adjusted with 10, 100 mM HCl (aq) and NaOH (aq) solution under argon purged condition. Excitation wavelength was 330 nm and polymethacrylate fluorimeter cuvettes were used. Absorbance and fluorescence titration with DNA. The concentrations of calf thymus DNA stock solution was determined spectophotometrically using the following molar absorptovity values: 1.32×10^4 M^−1 cm^−1 (per base pair) at 260 nm. All experiments were done in 20 mM sodium phosphate buffer at 25° C. and polymethacrylate fluorimeter cuvettes were used. The same amount of DNA was added to both sample and reference cuvettes during UV/Vis titration. Determination of excited state lifetimes. The concentration of compound solution was 10 μM in 20 mM sodium phosphate buffer. The photoluminescence lifetime measurements were conducted by exciting the samples with the output of a Nd:VO—4 (Spectra-Physics Vanguard, 2 W, 532 nm, 76 MHz, 10 ps) pumped R6G dye laser (Coherent 702-1). The output of the dye laser (600 nm, Rhodamine 6G) was cavity dumped at 1.9 MHz and frequency doubled using a BBO crystal to excite the fluorophore (the excitation wavelength used was 290 nm). Samples were excited with <1 mW power and the emission was collected at right angles onto a Chromex S3 500 is 0.5 m imaging monochromator with a 50 g/mm grating and 0.5 nm resolution. […]

A short description of series [3]: Fluorometric (emission) determination of pKa. It counts as physicochemical. Particulars: emission; α-amino group (4, 6), ε-amino group (7). Here is the method: as §1

Regarding `C[C@H](N)C(=O)Nc1ccc(C#Cc2c(F)c(F)nc(F)c2F)cc1.Cl` [Compound 6, (S)-2-Amino-propanoic acid [4-(2,3,5,6-tetrafluoro-pyridin-4-ylethynyl)-phenyl]-amide hydrochloride], the ds-cleavage result in series [1] is given as “do not produce any ds-cleavage”. Besides, the pKa1 in series [2] is on record as 7.4; in series [3], 7.6.

Source of the values: patent publication US8334403B1, “C-lysine conjugates as pH-controlled, light-activated reagents for double stranded DNA cleavage and associated methods” (Florida State University Research Foundation, Inc., priority 2005, dated 2012).
